Data on three molecules can be found in patent US12636311B2, “Topically administered strontium-containing complexes for treating pain, pruritis and inflammation” (Galleon Labs LLC, priority 2012, dated 2026).

One experiment relates to brachioradial pruritus. The experiment is described as follows: Brachioradial pruritus, itch severity reported by subject. Conditions: topical treatment, moderate to severe itch. Type of experiment: in vivo, human. The source says:
A person suffered from brachioradial pruritus for over 20 years, a neuropathic condition that is believed to be caused by compression of cervical nerves that innervate the mid-back and arms. They experienced moderate to severe itching typically most intense on their arms, neck and shoulders.
During the last several years, the subject treated their condition with either strontium alone (4% or 6% elemental strontium) and with a spray formulation of strontium+ Gallic Acid+ NAC. […] Reapplication 3 or 4 times over a 10-20 minute period increased that anti-itch benefit and reduced the itching by about 50%. […] If itching remained, a second spray eliminated the remaining itching.
Subsequent blinded tests were performed in which either 4% strontium only or 6% strontium only was directly compared to 4% strontium+ Gallic Acid+ NAC. Since the subject's brachioradial pruritus typically produced itching of approximately equal intensity on both arms in a bilaterally-symmetrical pattern, strontium alone was applied to one arm and strontium+ Gallic Acid+ NAC was applied to the contralateral arm in a double-blinded manner and itch severity was reported by the subject.

Experiment [1] has as its system TCN activation by 70% glycolic acid peel. The note with it: strontium mixed with 70% glycolic acid, pH 0.6; cited from earlier work.
The test system of experiment [2] is synchronous neurotransmitter release in response to TCN activation. Conditions: strontium substitutes for calcium; cited from earlier work.

In the case of `C[C@]12CCC(=O)C=C1CC[C@@H]1[C@@H]2[C@@H](O)C[C@@]2(C)[C@H]1CC[C@]2(O)C(=O)CO` [hydrocortisone], in the experiment on brachioradial pruritus, the “Anti-itch benefit (in words)” value is given as “no anti-itch benefit”.

On to `[Sr+2]` [strontium], for which the “Suppression of burning pain and stinging” value in experiment [1] was at least 80%. In addition, the “Reduction of amplitude of synchronous neurotransmitter release” value in experiment [2] was “more than 90%”.

With `CN(C)CCOC(c1ccccc1)c1ccccc1` [diphenhydramine], the “Anti-itch benefit (in words)” value in the experiment with brachioradial pruritus is “limited benefit only when the itching was mild”.
